# Measurements as given in patent US9999611B2, “SIRT 1 activator including syringaresinol” (AMOREPACIFIC CORPORATION, priority 2011, dated 2018).
# How the values were obtained:
# SIRT1 [1] = test: SIRT1 expression promoting effect in adipocytes, hepatocytes and myocytes (qRT-PCR); assay type: cell-based, human; conditions: 24 hours, FIG. 4
# Protocol: The SIRT1 gene expression promoting effect of syringaresinol in human adipocytes, hepatocytes and myocytes was evaluated as follows.
# Human adipocytes, hepatocytes and myocytes were purchased from Zen-Bio (Research Triangle Park, N.C., USA) and cultured in a 5% CO2 incubator using respectively an adipocyte medium (OM-AM, Zen-Bio), a hepatocyte medium (HM-2, Zen-Bio) and a myocyte medium (SKM-D, SKM-M, Zen-Bio). The cells were treated with syringaresinol dissolved in DMSO to a concentration of 20, 50 or 100 μM for 24 hours. A negative control group was treated with DMSO corresponding to 1/1000 of the volume of the culture medium.
# The cells treated with each sample were washed 2 times with cold PBS and RNA was extracted therefrom using the TRIzol reagent (Invitrogen). Then, cDNA was synthesized from the extracted RNA ([…]) using a reverse transcription system (Fermentas, Glen Burnie, Md., USA). The expression pattern of the SIRT1 and GAPDH genes was monitored by qRT-PCR using the synthesized cDNA and predesigned primers and probes. PCR reaction and analysis were carried out using the Rotor-Gene 3000 system (Corbett Research, Sydney, Australia).
# ACO, CPT1, mCAD = test: Expression of fatty acid oxidation-related genes (qRT-PCR); assay type: cell-based, human; conditions: 50 μM, vs DMSO control
# Protocol: Human adipocytes, hepatocytes and myocytes were treated with 50 μM syringaresinol and washed with PBS in substantially the same manner as in Test Example 3. RNA was extracted from the cells and cDNA was synthesized therefrom. The change in expression pattern of fatty acid synthesis-related genes such as ADD1/SREBP1c, ACC, FAS, etc. and fatty acid oxidation-related genes such as ACO, CPT1, mCAD, etc. was measured by qRT-PCR.
# Human adipocytes = test: Fatty acid oxidation promoting ability (3H2O in medium), adipocytes; assay type: cell-based; conditions: 50 μM, vs non-treated group, FIG. 11
# Protocol: (§1) Human adipocytes, hepatocytes and myocytes were treated with 50 μM syringaresinol in substantially the same manner as in Test Example 3. The cells were washed with PBS and cultured for a day in a medium for fatty acid oxidation analysis. The medium was recovered and the amount of ^3H2O was measured.
# Human hepatocytes = test: Fatty acid oxidation promoting ability (3H2O in medium), hepatocytes; assay type: cell-based; conditions: 50 μM, vs non-treated group, FIG. 11
# Protocol: as §1
# Human myocytes = test: Fatty acid oxidation promoting ability (3H2O in medium), myocytes; assay type: cell-based; conditions: 50 μM, vs non-treated group, FIG. 11
# Protocol: as §1
# PGC-1β = PGC-1β mRNA expression promoting effect (qRT-PCR); assay type: cell-based, human; conditions: 50 μM, vs DMSO control, FIG. 13
# Protocol: Human adipocytes, hepatocytes and myocytes were treated with 50 μM syringaresinol in substantially the same manner as in Test Example 3 and washed with PBS. Then, RNA and cDNA were sequentially extracted therefrom. The mRNA expression of the energy metabolism-related genes PGC-1α and PGC-1β was analyzed by qRT-PCR. A result of comparing the expression of PGC-1α and PGC-1β with a control group treated only with DMSO is shown in FIG. 12 and FIG. 13, respectively.
# [2] = test system: aged retinal cells (ARPE-19); test: Mitochondrial biosynthesis promoting effect in aged retinal cells (mitochondrial DNA relative to nuclear DNA, real-time PCR); assay type: cell-based, human; conditions: vs DMSO, FIG. 15
# Protocol: The aging of retinal cells was induced while treating with 50 or 100 μM syringaresinol or with DMSO as a negative control, in substantially the same manner as in Test Example 7. The cells treated with each sample were washed 2 times with cold PBS and genomic DNA (gDNA) was extracted therefrom using the FastPure DNA kit (Tokyo, Japan). For evaluation of mitochondrial biosynthesis, the quantity of the mitochondrial DNA marker cytochrome oxidase subunit II and the nuclear DNA marker cyclophilin A was quantified through real-time PCR using the extracted gDNA and the number of mitochondria was measured by calculating the quantity of mitochondrial DNA relative to the nuclear DNA. PCR reaction and analysis were carried out using the Rotor-Gene 3000 system (Corbett Research, Sydney, Australia).
# SIRT1 [3] = test: SIRT1 expression promoting effect in human PBMCs (qRT-PCR); assay type: cell-based; conditions: human PBMCs, 20, 50 or 100 μM, 24 hours; FIG. 17
# Protocol: The SIRT1 gene expression promoting effect of syringaresinol in human PBMCs was evaluated as follows.
# Human PBMCs were purchased from Zen-Bio (Research Triangle Park, N.C., USA) and cultured in a 5% CO2 incubator using a PBMC medium (Zen-Bio) until 80% confluency. Then, the cells were treated for 24 hours with syringaresinol dissolved in DMSO to a concentration of 20, 50 or 100 μM. A negative control group was treated with DMSO corresponding to 1/1000 of the volume of the culture medium. The cells treated with each sample were washed with PBS and RNA was extracted therefrom using the TRIzol reagent (Invitrogen). Then, cDNA was synthesized from the extracted RNA (5 μg) using a reverse transcription system (Fermentas, Glen Burnie, Md., USA). The expression pattern of the SIRT1 and GAPDH genes was monitored by qRT-PCR using the synthesized cDNA and predesigned primers and probes. qRT-PCR reaction and analysis were carried out using the Rotor-Gene 3000 system (Corbett Research, Sydney, Australia).
# human PBMCs [4] = test: Reactive oxygen species production inhibiting effect in LPS-treated human PBMCs (H2-DCFDA); assay type: cell-based; conditions: human PBMCs pretreated with 20, 50 or 100 μM, then 10 ng/mL LPS; compared to cells treated only with LPS; FIG. 18
# Protocol: After pretreating human PBMCs with 20, 50 or 100 μM syringaresinol in substantially the same manner as in Test Example 10, followed by washing with PBS, inflammatory response was induced by treating with 10 ng/mL lipopolysaccharide (LPS). After treating the cells with H2-DCFDA (Invitrogen), which is a fluorescent substance capable of detecting reactive oxygen species, the amount of fluorescent substance was measured using a multiplate reader (Infinite M200; Tecan, Mannedorf, Switzerland).
# human PBMCs [5] = test: Human PBMC migration and deposition onto 3T3-L1 adipocytes (TNF-induced); assay type: cell-based; conditions: human PBMCs, 20, 50 or 100 μM, 10 ng/mL TNF, differentiated 3T3-L1 adipocytes, 48 hours; FIG. 20
# Protocol: After treating human PBMCs with 20, 50 or 100 μM syringaresinol or DMSO in substantially the same manner as in Test Example 11, inflammatory response was induced by treating with 10 ng/mL TNF. After treating differentiated 3T3-L1 adipocytes (Zen-Bio) with the PBMCs, it was investigated whether the PBMCs migrate onto the adipocytes and deposit. 48 hours later, after removing the PBMCs remaining without migrating, the cells were detached from a culture dish using trypsin/EDTA and then counted using a cell counter.
structure (smiles),measurement,setting,value
COc1cc(C2OCC3C(c4cc(OC)c(O)c(OC)c4)OCC23)cc(OC)c1O (centres unmarked) [syringaresinol],SIRT1 expression,"SIRT1 [1]; human adipocytes, 20, 50 or 100 μM",increased SIRT1 expression
same,SIRT1 expression,"SIRT1 [1]; human hepatocytes, 20, 50 or 100 μM",increased SIRT1 expression
same,SIRT1 expression,"SIRT1 [1]; human myocytes, 20, 50 or 100 μM",increased SIRT1 expression
same,expression of fatty acid oxidation promoting genes,"ACO, CPT1, mCAD; human adipocytes, FIG. 8",increased the expression of fatty acid oxidation promoting genes
same,expression of fatty acid oxidation promoting genes,"ACO, CPT1, mCAD; human hepatocytes, FIG. 9",increased the expression of fatty acid oxidation promoting genes
same,expression of fatty acid oxidation promoting genes,"ACO, CPT1, mCAD; human myocytes, FIG. 10",increased the expression of fatty acid oxidation promoting genes
same,fatty acid oxidation,Human adipocytes,increased fatty acid oxidation
same,fatty acid oxidation,Human hepatocytes,increased fatty acid oxidation
same,fatty acid oxidation,Human myocytes,increased fatty acid oxidation
same,expression of PGC-1β,PGC-1β; human adipocytes,increased the expression
same,expression of PGC-1β,PGC-1β; human hepatocytes,increased the expression
same,expression of PGC-1β,PGC-1β; human myocytes,increased the expression
same,increase in mitochondrial biosynthesis (mitochondrial DNA relative to nuclear DNA),[2]; 50 μM,about 40%
same,increase in mitochondrial biosynthesis (mitochondrial DNA relative to nuclear DNA),[2]; 100 μM,~60%
same,SIRT1 expression,SIRT1 [3],increased SIRT1 expression in PBMCs in a concentration-dependent manner
same,decreased reactive oxygen species production,human PBMCs [4],about 60%
same,inhibition of migration and deposition of PBMCs onto adipocytes,human PBMCs [5],about 50%
